Data taken from patent US9499550B2 (BRISTOL-MYERS SQUIBB COMPANY, priority 2012, dated 2016).
Like-named read-outs stand apart in the source and are kept apart here.

Experiments:
[1] = test system: HCV genotype 1a (H77 strain) replicon in HUH-7 cells; assay: HCV replicon luciferase reporter assay, genotype 1a; format: cell-based; settings: Hepatitis C virus, Huh-7, 72 h, 3 days incubation
In short: (§1)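 Replicon inhibition for both genotypes was measured as Renilla luciferase signal (EnduRen, 7.5 μM final, 2 h) after 3-day, 37° C exposure of replicon-bearing HUH-7 cells in 4% FCS DMEM, 0.5% DMSO. The 1b construct carries S1179I; the 1a H77 construct carries P1496L and S2204I. Twenty-point, 3-fold dilutions were fitted four-parametrically for EC50, and CC50 was taken from multiplexed Cell Titer-Blue.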

[2] = test system: HCV genotype 1b (Con1) replicon in HUH-7 cells; assay: HCV replicon luciferase reporter assay, genotype 1b; format: cell-based; settings: Hepatitis C virus, Huh-7, 72 h, 3 days incubation
In short: as §1

[3] = HCV genotype 1a replicon luciferase, read-out: LE_1a (EC50, range)
[4] = HCV genotype 1b replicon luciferase, read-out: LE_1b (EC50, range)
[5] = HCV genotype 1a replicon luciferase assay, range class, read-out: LE_1a (EC50, range)
[6] = HCV genotype 1b replicon luciferase assay, range class, read-out: LE_1b (EC50, range)
[7] = GETYPE1A, HCV genotype 1a replicon luciferase, read-out: LE_1a (EC50, range)
[8] = GETYPE1B, HCV genotype 1b replicon luciferase, read-out: LE_1b (EC50, range)

Row | SMILES | EC50 [1, 3] [nM] | EC50 [2, 4] [nM] | also measured
1 | C[C@@H]1CC/C=C\[C@@H]2C[C@@]2(C(=O)NS(=O)(=O)C2CC2)NC(=O)[C@@H]2C[C@@H](Oc3ncc(OCC4CC4)c4ccccc34)CN2C(=O)[C@@H](NC(=O)CC(C)(C)C(F)(F)F)[C@H](C)C1 [Compound 4030] | < 5.46 | < 5.46 | –
2 | [2H]C([2H])([2H])C(OC(=O)N[C@@H]1C(=O)N2C[C@H](Oc3nc(N(C)C)cc4cc(OC)ccc34)C[C@H]2C(=O)N[C@]2(C(=O)NS(=O)(=O)C3(C)CC3)C[C@H]2/C=C\CC[C@@H](C)C[C@H]1C)(C([2H])([2H])[2H])C(F)(F)F [Compound 3115, 1,1,1,3,3,3-hexadeutero-2-(trifluoromethyl)propan-2-yl((2R,6S,7R,9R,13aS,14aR,16aS,Z)-2-((3-(dimethylamino)-6-methoxyisoquinolin-1-yl)oxy)-7,9-dimethyl-14a-(((1-methylcyclopropyl)sulfonyl)carbamoyl)-5,16-dioxo-1,2,3,5,6,7,8,9,10,11,13a,14,14a,15,16,16a-hexadecahydrocyclopropa[e]pyrrolo[1,2-a][1,4]diazacyclopentadecin-6-yl)carbamate] | – | – | EC50 [1, 5]: 4.82 to 103 nM; EC50 [2, 6]: 4.82 to 103 nM
3 | CC[C@@H]1C[C@H](C)CC/C=C\[C@@H]2C[C@@]2(C(=O)NS(=O)(=O)C2CC2)NC(=O)[C@@H]2C[C@@H](Oc3nc4cc(OC(C)C)ccc4nc3C(F)(F)F)CN2C(=O)[C@H]1NC(=O)OC(C)(C)C [Compound 4337, tert-butyl ((2R,6S,7R,9R,13aS,14aR,16aS,Z)-14a-((cyclopropylsulfonyl)carbamoyl)-7-ethyl-2-((7-isopropoxy-3-(trifluoromethyl)quinoxalin-2-yl)oxy)-9-methyl-5,16-dioxo-1,2,3,5,6,7,8,9,10,11,13a,14,14a,15,16,16a-hexadecahydrocyclopropa[e]pyrrolo[1,2-a][1,4]diazacyclopentadecin-6-yl)carbamate] | 0.51 to 1 | 0.51 to 1 | –
4 | CC[C@@H]1C[C@@H](C)CC/C=C\[C@@H]2C[C@@]2(C(=O)NS(=O)(=O)C2(C)CC2)NC(=O)[C@@H]2C[C@@H](Oc3ncc(N4CCOCC4)c4cc(OC)ccc34)CN2C(=O)[C@H]1NC(=O)OC(C)(C)C(F)(F)F [Compound 4207] | – | – | EC50 [1, 7]: < 5.46 nM; EC50 [2, 8]: < 5.46 nM
5 | CCOc1cc2ccnc(O[C@@H]3C[C@H]4C(=O)N[C@]5(C(=O)NS(=O)(=O)C6(CF)CC6)C[C@H]5/C=C\CC[C@@H](C)C[C@@H](C)[C@H](NC(=O)OC(C)(C)C)C(=O)N4C3)c2cc1F [Compound 5411, tert-butyl ((2R,6S,7R,9R,13aS,14aR,16aS,Z)-2-((6-ethoxy-7-fluoroisoquinolin-1-yl)oxy)-14a-(((1-(fluoromethyl)cyclopropyl)sulfonyl)carbamoyl)-7,9-dimethyl-5,16-dioxo-1,2,3,5,6,7,8,9,10,11,13a,14,14a,15,16,16a-hexadecahydrocyclopropa[e]pyrrolo[1,2-a][1,4]diazacyclopentadecin-6-yl)carbamate] | 1.01 to 5 | 0.51 to 1 | –
6 | CC[C@@H]1C[C@H](C)CC/C=C\[C@@H]2C[C@@]2(C(=O)NS(=O)(=O)C2CC2)NC(=O)[C@@H]2C[C@@H](Oc3nc(-c4ccc(OC(C)C)cn4)cc4cc(OC)ccc34)CN2C(=O)[C@H]1NC(=O)OC(C)(C)C [Compound 5479, tert-butyl ((2R,6S,7R,9R,13aS,14aR,16aS,Z)-14a-((cyclopropylsulfonyl)carbamoyl)-7-ethyl-2-((3-(5-isopropoxypyridin-2-yl)-6-methoxyisoquinolin-1-yl)oxy)-9-methyl-5,16-dioxo-1,2,3,5,6,7,8,9,10,11,13a,14,14a,15,16,16a-hexadecahydrocyclopropa[e]pyrrolo[1,2-a][1,4]diazacyclopentadecin-6-yl)carbamate] | 1.01 to 5 | 0.51 to 1 | –
7 | COc1cc(F)cc2c(O[C@@H]3C[C@H]4C(=O)N[C@]5(C(=O)NS(=O)(=O)C6(C)CC6)C[C@H]5/C=C\CC[C@@H](C)C[C@@H](C)[C@H](NC(=O)OCC5(C)CC5)C(=O)N4C3)nccc12 [Compound 3162, (1-methylcyclopropyl)methyl ((2R,6S,7R,9R,13aS,14aR,16aS,Z)-2-((7-fluoro-5-methoxyisoquinolin-1-yl)oxy)-7,9-dimethyl-14a-(((1-methylcyclopropyl)sulfonyl)carbamoyl)-5,16-dioxo-1,2,3,5,6,7,8,9,10,11,13a,14,14a,15,16,16a-hexadecahydrocyclopropa[e]pyrrolo[1,2-a][1,4]diazacyclopentadecin-6-yl)carbamate] | – | – | EC50 [1, 5]: < 5.46 nM; EC50 [2, 6]: < 5.46 nM
8 | CCCOc1cnc(O[C@@H]2C[C@H]3C(=O)N[C@]4(C(=O)NS(=O)(=O)C5CC5)C[C@H]4/C=C\CC[C@@H](C)C[C@@H](C)[C@H](NC(=O)OC(C)(C)C)C(=O)N3C2)c2ccccc12 [Compound 5089, tert-butyl ((2R,6S,7R,9R,13aS,14aR,16aS,Z)-14a-((cyclopropylsulfonyl)carbamoyl)-7,9-dimethyl-5,16-dioxo-2-((4-propoxyisoquinolin-1-yl)oxy)-1,2,3,5,6,7,8,9,10,11,13a,14,14a,15,16,16a-hexadecahydrocyclopropa[e]pyrrolo[1,2-a][1,4]diazacyclopentadecin-6-yl)carbamate] | < 5.46 | < 5.46 | –
9 | CCn1nc(O[C@@H]2C[C@H]3C(=O)N[C@]4(C(=O)NS(=O)(=O)C5(C)CC5)C[C@H]4/C=C\CC[C@H](C)C[C@@H](C)[C@H](NC(=O)c4ccc(N(C)C)cc4)C(=O)N3C2)c2ccccc2c1=O [Compound 5060, (2R,6S,7R,9S,13aS,14aR,16aS,Z)-6-(4-(dimethylamino)benzamido)-2-((3-ethyl-4-oxo-3,4-dihydrophthalazin-1-yl)oxy)-7,9-dimethyl-N-((1-methylcyclopropyl)sulfonyl)-5,16-dioxo-1,2,3,5,6,7,8,9,10,11,13a,14,14a,15,16,16a-hexadecahydrocyclopropa[e]pyrrolo[1,2-a][1,4]diazacyclopentadecine-14a-carboxamide] | > 87.4 | > 87.4 | EC50 ([1]; HCV genotype 1a replicon luciferase, read-out: LE_1a (EC50)): ≥ 1000 nM; EC50 ([2]; HCV genotype 1b replicon luciferase, read-out: LE_1b (EC50)): 950 nM
10 | CCOc1cc2cc(OC)ccc2c(O[C@@H]2C[C@H]3C(=O)N[C@]4(C(=O)NS(=O)(=O)C5(C)CC5)C[C@H]4/C=C\CC[C@@H](C)C[C@@H](C)[C@H](NC(=O)OC(C)(C)C(F)(F)F)C(=O)N3C2)n1 [Compound 3198, 1,1,1-trifluoro-2-methylpropan-2-yl((2R,6S,7R,9R,13aS,14aR,16aS,Z)-2-((3-ethoxy-6-methoxyisoquinolin-1-yl)oxy)-7,9-dimethyl-14a-(((1-methylcyclopropyl)sulfonyl)carbamoyl)-5,16-dioxo-1,2,3,5,6,7,8,9,10,11,13a,14,14a,15,16,16a-hexadecahydrocyclopropa[e]pyrrolo[1,2-a][1,4]diazacyclopentadecin-6-yl)carbamate] | 0.51 to 1 | 1.01 to 5 | –
11 | CC[C@@H]1C[C@H](C)CC/C=C\[C@@H]2C[C@@]2(C(=O)NS(=O)(=O)C2(CF)CC2)NC(=O)[C@@H]2C[C@@H](Oc3ncc(N4CCOCC4)c4ccccc34)CN2C(=O)[C@H]1NC(=O)OC(C)(C)C(C)(F)F [Compound 5447, 3,3-difluoro-2-methylbutan-2-yl((2R,6S,7R,9R,13aS,14aR,16aS,Z)-7-ethyl-14a-(((1-(fluoromethyl)cyclopropyl)sulfonyl)carbamoyl)-9-methyl-2-((4-morpholinoisoquinolin-1-yl)oxy)-5,16-dioxo-1,2,3,5,6,7,8,9,10,11,13a,14,14a,15,16,16a-hexadecahydrocyclopropa[e]pyrrolo[1,2-a][1,4]diazacyclopentadecin-6-yl)carbamate] | 1.01 to 5 | 1.01 to 5 | –
12 | CC[C@@H]1C[C@H](C)CC/C=C\[C@@H]2C[C@@]2(C(=O)NS(=O)(=O)C2(C)CC2)NC(=O)[C@@H]2C[C@@H](Oc3ncc(OC)c4ccc(F)cc34)CN2C(=O)[C@H]1NC(=O)OC(C)(C)C(C)(F)F [Compound 5455, 3,3-difluoro-2-methylbutan-2-yl((2R,6S,7R,9R,13aS,14aR,16aS,Z)-7-ethyl-2-((7-fluoro-4-methoxyisoquinolin-1-yl)oxy)-9-methyl-14a-(((1-methylcyclopropyl)sulfonyl)carbamoyl)-5,16-dioxo-1,2,3,5,6,7,8,9,10,11,13a,14,14a,15,16,16a-hexadecahydrocyclopropa[e]pyrrolo[1,2-a][1,4]diazacyclopentadecin-6-yl)carbamate] | 1.01 to 5 | 0.1 to 0.5 | –
13 | COc1ccc2c(O[C@@H]3C[C@H]4C(=O)N[C@]5(C(=O)NS(=O)(=O)C6CC6)C[C@H]5/C=C\CC[C@H](C)C[C@@H](C)[C@H](NC(=O)OC(C)(C)C)C(=O)N4C3)nccc2c1F [Compound 3147, tert-butyl ((2R,6S,7R,9S,13aS,14aR,16aS,Z)-14a-((cyclopropylsulfonyl)carbamoyl)-2-((5-fluoro-6-methoxyisoquinolin-1-yl)oxy)-7,9-dimethyl-5,16-dioxo-1,2,3,5,6,7,8,9,10,11,13a,14,14a,15,16,16a-hexadecahydrocyclopropa[e]pyrrolo[1,2-a][1,4]diazacyclopentadecin-6-yl)carbamate] | – | – | EC50 [1, 5]: 4.82 to 103 nM; EC50 [2, 6]: < 5.46 nM
14 | COc1ccc2ncc(O[C@@H]3C[C@H]4C(=O)N[C@]5(C(=O)NS(=O)(=O)C6(C)CC6)C[C@H]5/C=C\CC[C@@H](C)C[C@@H](C)[C@H](NC(=O)OC(C)(C)C(F)(F)F)C(=O)N4C3)nc2c1 [Compound 4162] | – | – | EC50 [1, 7]: < 5.46 nM; EC50 [2, 8]: < 5.46 nM
